The subject of one assay is HCT 116 (colon) cells. Briefly: Anti-cancer screen, growth inhibition (MTT). In kind it is cell-based. The note with it: Homo sapiens, HCT-116 cells, 48 hours of incubation. A digest of the protocol:
(§1)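 MTT added for 3 h at 37° C, formazan dissolved in DMSO and A570 read. A T0 plate was measured at compound addition.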

The subject of a further assay is NCI-H460 (lung) cells. Nature of the assay: Anti-cancer screen, growth inhibition (MTT). The assay is classed as cell-based. The settings on record: Homo sapiens, 48 hours of incubation. In a few lines:
as §1

A further assay relates to U251 (glioma) cells. Nature of the assay: Anti-cancer screen, growth inhibition (MTT). The assay is classed as cell-based. The settings on record: Homo sapiens, U-251 cells, 48 hours of incubation. In a few lines:
as §1

Assay [1] relates to T1, HDAC (Mouse Liver Extract).
T1 construct: Mouse liver enzyme (10 mg/ml) was diluted 1:6 with HDAC buffer
Nature of the assay: HDAC inhibition assay using Boc-Lys(Ac)-AMC substrate, mouse liver enzyme.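 On IC50: IC50 for inhibition of HDAC activity in mouse liver extract.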 In kind it is biochemical.

A value given as a limit tells only on which side of the number the result lay.

By GI50 is commonly meant the concentration giving 50% growth inhibition. A high value points to less potent growth inhibition. With `O=C(/C=C/c1ccc(/C=C(/C(=O)NC2CC2)c2ccc(F)cc2)cc1)NCCCCCC(=O)NO` [Example 75, 6-((1E)-3-(4-(3-(Cyclopropylamino)-2-(4-fluorophenyl)-3-oxoprop-1-en-1-yl)phenyl)acrylamido)-N-hydroxyhexanamide], the GI50 with HCT 116 (colon) cells amounted to 23 µM; in the assay with NCI-H460 (lung) cells, 38 µM; with U251 (glioma) cells, 30 µM. The “HDAC Inhibition % (1 μM)” value in assay [1] is recorded as 70.3%. In addition, the “HDAC Inhibition % (10 μM)” value in assay [1] was 94.4%.

As a reminder, the IC50 is the concentration that inhibits the measured activity by half. A low value points to greater potency in that assay. Regarding `O=C(/C=C/c1ccc(/C=C(/C(=O)NC2CC2)c2ccccc2Cl)cc1)NCCCCCC(=O)NO` [Example 77, 6-((1E)-3-(4-(3-(Cyclopropylamino)-2-(2-chlorophenyl)-3-oxoprop-1-en-1-yl)phenyl)acrylamido)-N-hydroxyhexanamide], the GI50 in the assay on HCT 116 (colon) cells turned out to be 5 µM; in the assay with NCI-H460 (lung) cells, 2.3 µM; in the assay with U251 (glioma) cells, 10.5 µM. The compound also returned an IC50 in assay [1] of 0.003 µM. Also, the “HDAC Inhibition % (1 μM)” value in assay [1] stood at 97.8%. In addition, in assay [1], the “HDAC Inhibition % (10 μM)” value came to 100.0%.

Take `O=C(/C=C/c1ccc(/C=C(/C(=O)NC2CC2)c2ccccc2F)cc1)NCCCCCC(=O)NO` [Example 78, 6-((1E)-3-(4-(3-(Cyclopropylamino)-2-(2-fluorophenyl)-3-oxoprop-1-en-1-yl)phenyl)acrylamido)-N-hydroxyhexanamide]: the 50% growth inhibitory concentration (GI50) with HCT 116 (colon) cells was found to be 5.6 µM; in the assay with NCI-H460 (lung) cells, 10.3 µM; in the assay with U251 (glioma) cells it was 22 µM. Moreover, the “HDAC Inhibition % (1 μM)” value in assay [1] amounted to 98.1%. Besides, the “HDAC Inhibition % (10 μM)” value in assay [1] is 99.9%.

In turn, `O=C(/C=C/c1ccc(/C=C(/C(=O)NC2CC2)c2ccc3c(c2)OCO3)cc1)NCCCCCC(=O)NO` [Example 79, 6-((1E)-3-(4-(3-(Cyclopropylamino)-2-[benzodioxol-5-yl]-3-oxoprop-1-en-1-yl)phenyl)acrylamido)-N-hydroxyhexanamide] yielded a concentration for 50% growth inhibition (GI50) in the assay with HCT 116 (colon) cells of 8.2 µM. The GI50 in the assay on NCI-H460 (lung) cells came out at 2.2 µM. Besides, growth in the assay with U251 (glioma) cells was halved (GI50) at 3.2 µM. Also, in assay [1], the midpoint of inhibition, the IC50, lay at 0.014 µM; the “HDAC Inhibition % (1 μM)” value came out at 99.1%; the “HDAC Inhibition % (10 μM)” value came to 100.0%.

Consider `O=C(/C=C/c1ccc(/C=C(/C(=O)NC2CC2)c2cccc(Cl)c2)cc1)NCCCCCC(=O)NO` [Example 80, 6-((1E)-3-(4-(3-(Cyclopropylamino)-2-(3-chlorophenyl)-3-oxoprop-1-en-1-yl)phenyl)acrylamido)-N-hydroxyhexanamide], for which, in the assay on HCT 116 (colon) cells, the GI50 stood at 4 µM. In the assay on NCI-H460 (lung) cells, this compound had a GI50 of 19 µM. Besides, halving of growth in the assay with U251 (glioma) cells (GI50) required 0.8 µM. For the same compound, in assay [1], the IC50 was less than 0.001 µM, the “HDAC Inhibition % (1 μM)” value is given as 100.0% and the “HDAC Inhibition % (10 μM)” value is listed as 100.0%.

Regarding `Cc1ccc(/C(=C\c2ccc(/C=C/C(=O)NCCCCCC(=O)NO)cc2)C(=O)NC2CC2)cc1` [Example 81, 6-((1E)-3-(4-(3-(Cyclopropylamino)-2-(4-methylphenyl)-3-oxoprop-1-en-1-yl)phenyl)acrylamido)-N-hydroxyhexanamide], growth with HCT 116 (colon) cells was halved (GI50) at 5 µM. The compound also registered a GI50 with NCI-H460 (lung) cells of 11 µM. Also, the concentration for 50% growth inhibition (GI50) in the assay on U251 (glioma) cells turned out to be 0.4 µM. Moreover, in assay [1], the IC50 was 0.01 µM, the “HDAC Inhibition % (1 μM)” value is recorded as 97.0% and the “HDAC Inhibition % (10 μM)” value is on record as 100.0%.

With `O=C(/C=C/c1ccc(/C=C(/C(=O)NC2CC2)c2ccccc2)cc1)NCCCCCC(=O)NO` [Example 82, 6-((1E)-3-(4-(3-(cyclopropylamino)-2-phenyl-3-oxoprop-1-enyl)phenyl)acrylamido)-N-hydroxyhexanamide], the concentration for 50% growth inhibition (GI50) with HCT 116 (colon) cells worked out at 3 µM; in the assay on NCI-H460 (lung) cells it was 1 µM; in the assay on U251 (glioma) cells, 7 µM. For the same compound, in assay [1], it took 0.0085 µM to reach half-maximal inhibition (IC50). In addition, the “HDAC Inhibition % (1 μM)” value in assay [1] is reported as 93.2%. Moreover, the “HDAC Inhibition % (10 μM)” value in assay [1] is recorded as 98.6%.

`COc1ccc(/C(=C\c2ccc(/C=C/C(=O)NCCCCCC(=O)NO)cc2)C(=O)NC2CC2)cc1` [Example 84, 6-((1E)-3-(4-(3-(Cyclopropylamino)-2-(4-methoxyphenyl)-3-oxoprop-1-en-1-yl)phenyl)acrylamido)-N-hydroxyhexanamide]: the GI50 in the assay on HCT 116 (colon) cells was 24 µM; in the assay on NCI-H460 (lung) cells, 70 µM; in the assay on U251 (glioma) cells, 24 µM. For the same compound, the “HDAC Inhibition % (1 μM)” value in assay [1] was 93.5%. The “HDAC Inhibition % (10 μM)” value in assay [1] is on record as 96.5%.

For the compound `COc1cccc(/C(=C\c2ccc(/C=C/C(=O)NCCCCCC(=O)NO)cc2)C(=O)NC2CC2)c1` [Example 85, 6-((1E)-3-(4-(3-(Cyclopropylamino)-2-(3-methoxyphenyl)-3-oxoprop-1-en-1-yl)phenyl)acrylamido)-N-hydroxyhexanamide], the 50% growth inhibitory concentration (GI50) in the assay with HCT 116 (colon) cells came to 26 µM; in the assay with NCI-H460 (lung) cells, 69 µM; with U251 (glioma) cells, 10.1 µM. Besides, in assay [1], the “HDAC Inhibition % (1 μM)” value amounted to 96.0%. For the same compound, in assay [1], the “HDAC Inhibition % (10 μM)” value is recorded as 100.0%.

As for `O=C(/C=C/c1ccc(/C=C(/C(=O)N2CCOCC2)c2ccc(F)cc2)cc1)NCCCCCC(=O)NO` [Example 86, 6-((1E)-3-(4-(3-(Morpholino)-2-(4-fluorophenyl)-3-oxoprop-1-enyl)phenyl)acrylamido)-N-hydroxyhexanamide], the GI50 with HCT 116 (colon) cells was determined as 19 µM; in the assay on NCI-H460 (lung) cells it was 50 µM; in the assay on U251 (glioma) cells, 10.5 µM. For the same compound, the “HDAC Inhibition % (1 μM)” value in assay [1] is 95.6%. Further, the “HDAC Inhibition % (10 μM)” value in assay [1] turned out to be 98.6%.

Take `O=C(/C=C/c1ccc(/C=C(/C(=O)N2CCOCC2)c2ccccc2F)cc1)NCCCCCC(=O)NO` [Example 87, 6-((1E)-3-(4-(3-(Morpholino)-2-(2-fluorophenyl)-3-oxoprop-1-en-1-yl)phenyl)acrylamido)-N-hydroxyhexanamide]: the values for the GI50 with HCT 116 (colon) cells, with NCI-H460 (lung) cells and in the assay on U251 (glioma) cells were 40 µM, 70 µM and 20 µM, respectively. Further, in assay [1], the “HDAC Inhibition % (1 μM)” value was 91.0%. Besides, the “HDAC Inhibition % (10 μM)” value in assay [1] is reported as 98.6%.

Consider `COc1ccc(/C(=C\c2ccc(/C=C/C(=O)NCCCCCC(=O)NO)cc2)C(=O)NC2CC2)cc1F` [Example 88, 6-((1E)-3-(4-(3-(Cyclopropylamino)-2-(3-fluoro-4-methoxyphenyl)-3-oxoprop-1-en-1-yl)phenyl)acrylamido)-N-hydroxyhexanamide], for which the figures for the concentration for 50% growth inhibition (GI50) with HCT 116 (colon) cells, in the assay on NCI-H460 (lung) cells and in the assay with U251 (glioma) cells were 11 µM, more than 100 µM and 18 µM, respectively. The “HDAC Inhibition % (1 μM)” value in assay [1] amounted to 97.9%. Moreover, the “HDAC Inhibition % (10 μM)” value in assay [1] is reported as 98.8%.

In the case of `O=C(/C=C/c1ccc(/C=C(/C(=O)NC2CC2)c2ccc(F)cc2)cc1)NCc1ccc(C(=O)NO)cc1` [Example 89, 4-(((1E)-3-(4-(3-(Cyclopropylamino)-2-(4-fluorophenyl)-3-oxoprop-1-en-1-yl)phenyl)acrylamido)methyl)-N-hydroxybenzamide], the concentration for 50% growth inhibition (GI50) was 40 µM in the assay with HCT 116 (colon) cells, more than 100 µM in the assay with NCI-H460 (lung) cells and 13 µM in the assay on U251 (glioma) cells. Moreover, the “HDAC Inhibition % (1 μM)” value in assay [1] is 42.1%. Moreover, the “HDAC Inhibition % (10 μM)” value in assay [1] amounted to 70.3%.

Compound `O=C(/C=C/c1ccc(/C=C(/C(=O)NC2CC2)c2ccccc2Cl)cc1)NCc1ccc(C(=O)NO)cc1` [Example 90, 4-(((1E)-3-(4-(3-(Cyclopropylamino)-2-(2-chlorophenyl)-3-oxoprop-1-en-1-yl)phenyl)acrylamido)methyl)-N-hydroxybenzamide] gave a GI50 in the assay on HCT 116 (colon) cells of 3.5 µM. The compound also showed a GI50 with NCI-H460 (lung) cells of 11 µM. In addition, in the assay on U251 (glioma) cells, the concentration for 50% growth inhibition (GI50) was determined as 4.5 µM. Also, in assay [1], it took 0.013 µM to reach half-maximal inhibition (IC50), the “HDAC Inhibition % (1 μM)” value is reported as 94.6% and the “HDAC Inhibition % (10 μM)” value stood at 100.0%.

Turning to `O=C(/C=C/c1ccc(/C=C(/C(=O)NC2CC2)c2cccc(Cl)c2)cc1)NCc1ccc(C(=O)NO)cc1` [Example 91, 4-(((1E)-3-(4-(3-(Cyclopropylamino)-2-(3-chlorophenyl)-3-oxoprop-1-en-1-yl)phenyl)acrylamido)methyl)-N-hydroxybenzamide], the concentration for 50% growth inhibition (GI50) was 0.2 µM in the assay with HCT 116 (colon) cells, 25 µM in the assay with NCI-H460 (lung) cells and 0.2 µM in the assay with U251 (glioma) cells. In assay [1], this compound had an IC50 of less than 0.001 µM. In assay [1], the “HDAC Inhibition % (1 μM)” value came to 99.8%. Further, the “HDAC Inhibition % (10 μM)” value in assay [1] was determined as 100.0%.

`Cc1ccc(/C(=C\c2ccc(/C=C/C(=O)NCc3ccc(C(=O)NO)cc3)cc2)C(=O)NC2CC2)cc1` [Example 92, 4-(((1E)-3-(4-(3-(Cyclopropylamino)-2-(4-methylphenyl)-3-oxoprop-1-en-1-yl)phenyl)acrylamido)methyl)-N-hydroxybenzamide] had a GI50 with HCT 116 (colon) cells of 3 µM. Halving of growth in the assay on NCI-H460 (lung) cells (GI50) required 0.1 µM. This compound showed a GI50 in the assay with U251 (glioma) cells of 24 µM. Moreover, in assay [1], half-maximal inhibition (IC50) was put at 0.0017 µM, the “HDAC Inhibition % (1 μM)” value was determined as 85.8% and the “HDAC Inhibition % (10 μM)” value is listed as 99.7%.

As for `O=C(/C=C/c1ccc(/C=C(/C(=O)NC2CC2)c2ccccc2)cc1)NCc1ccc(C(=O)NO)cc1` [Example 93, 4-(((1E)-3-(4-(3-(Cyclopropylamino)-2-phenyl-3-oxoprop-1-en-1-yl)phenyl)acrylamido)methyl)-N-hydroxybenzamide], the GI50 stood at 35 µM with HCT 116 (colon) cells, 32 µM with NCI-H460 (lung) cells and 52 µM in the assay with U251 (glioma) cells. Further, the “HDAC Inhibition % (1 μM)” value in assay [1] worked out at 74.0%. The “HDAC Inhibition % (10 μM)” value in assay [1] was 91.6%.

`COc1ccc(/C(=C\c2ccc(/C=C/C(=O)NCc3ccc(C(=O)NO)cc3)cc2)C(=O)NC2CC2)cc1` [Example 95, 4-(((1E)-3-(4-(3-(Cyclopropylamino)-2-(4-methoxyphenyl)-3-oxoprop-1-en-1-yl)phenyl)acrylamido)methyl)-N-hydroxybenzamide]: the GI50 in the assay with HCT 116 (colon) cells was 4 µM; with NCI-H460 (lung) cells, 90 µM; in the assay on U251 (glioma) cells, 15 µM. In assay [1], the “HDAC Inhibition % (1 μM)” value was 97.6%. In addition, in assay [1], the “HDAC Inhibition % (10 μM)” value was 100.0%.

The values above are taken from US8450525B2, “Histone deacetylase inhibitors” (Orchid Chemicals & Pharmaceuticals Limited, priority 2007, dated 2013).
